The source of these data is US20250340510A1, “Substituted Phenylbenzenesulfonamide Derivatives and Uses Thereof” (Nine Square Therapeutics Corporation, priority 2022, published 2025).

One may read the EC50 as the concentration giving half of the maximal effect.

The target in one experiment is TRPML1 (Homo sapiens, UniProt Q9GZU1). The experiment is described as follows: Calcium flux in HEK293 overexpressing TRPML1 plasma membrane variant (FLIPR, Calcium 6 dye). Particulars: HEK293/TRPML1-PM clone A5 cells; 4-parameter logistic fit; read-out: TRPML1 calcium flux (FLIPR) dose response: EC50. The class given is cell-based. In outline:
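HEK293 clone expressing plasma-membrane-targeted TRPML1 (N- and C-terminal dileucine motifs deleted), loaded with Calcium 6 dye for 2 h at 37 °C in HBSS/20 mM HEPES pH 7.4. Fluorescence recorded 10 s baseline then 170 s after compound addition. Max-minus-min response over baseline fitted by 4-parameter logistic for EC50.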
For orientation: Calcium assays in cells follow changes in intracellular calcium, usually with a dye or a luminescent sensor.

For the next experiment, the system named is TFEB. Briefly: TFEB translocation assay in HeLa cells (nuclear to cytoplasmic TFEB ratio, high-content imaging). Type of experiment: cell-based. As to conditions: 90 mins incubation at 37° C., ratio of nuclear to cytoplasmic TFEB. On the procedure: Example B2. TFEB Translocation Assay
Rabbit TFEB antibody, Cell Signaling Technology #4240S
PFA 16% MeOH-free, Election Microscopy Sciences #50-980-487
HCS CellMask Deep Red, ThermoFisher Scientific #H32721
Plates: Perkin Elmer Phenoplate #605730 black optically clear, tissue culture treated 384-well plate
Example B2.2 Method, Day 1: Cells Seeded in 384WP
Cells were seeded in the afternoon. The outer one row of the plate was not used to avoid outer well edge effects.
HeLa cells were detached using trypsin, and the cells were counted using a cell counter.
4000 HeLa cells were seeded per well in […] growth media (DMEM with 10% FBS, 1 mM sodium pyruvate and Pen-Strep).
Example B2.3 Method, Day 2: Assay with TRPML1 Compounds+Staining
Compounds were added to cells using a Tecan D300e dispenser.
Cells were incubated for 90 mins at 37° C. with the compounds (compound range: 80 nM-[…] (2× step dilution—8 dilution steps, 3 replicates per condition)
The cells were fixed by adding 16.5 μL of 16% PFA (4% final) and incubating for 15 min at room temperature.
The cells were washed with 3× in PBS-TX (PBS+0.1% Triton X-100)−1×100 μL followed by 2×50 μL.
The cells were blocked and permeabilized in 30 μL of blocking buffer (PBS-TX+5% goat serum) for 1 h.
The cells were incubated with TFEB antibody (1:200, CST 4240S) in 30 μL blocking buffer overnight at 4° C. The plates were kept damp to avoid evaporation.
Example B2.4 Method, Day 3: Staining+Imaging
The cells were washed 3× in PBS-TX—3×100 μL with a Biotek EL406 washer.
The cells were incubated with Goat anti-Rb Alexa-Fluor 488 (1:2000), cell mask (1:10,000) and Hoechst (1:10,000) in 30 μL blocking buffer for 1 h at room temperature. The solution was dispensed using a 5 μL peristaltic cassette (EL406).
The cells were washed 3× in PBS-TX—3×100 μL with a EL406 washer, then […] PBS was dispensed using a 5 μL peristaltic cassette (EL406).
The cells were imaged on an Operetta CLS High-content imaging system using a 20× water immersion objective (NA 1.0) the same day.
Image analysis was performed using Harmony V4.9 (Perkin Elmer). Briefly, nuclei were segmented from background-corrected images using Hoechst intensity, and cell body segmented using HCS CellMask DeepRed. A sliding parabola filter was applied to the AlexaFluor 488 channel (TFEB), before sum pixel intensity in the nuclear and cytoplasmic regions was calculated. A ratio of nuclear to cytoplasmic TFEB was used to define TFEB translocation from the cytosolic to nuclear compartment. The EC50 values derived by fitting the data to a sigmoidal dose response curve using Prism 9 (Graphpad).

The structures appear in SMILES notation.

Chain of TRPML1 (Q9GZU1 17-572 limits assumed): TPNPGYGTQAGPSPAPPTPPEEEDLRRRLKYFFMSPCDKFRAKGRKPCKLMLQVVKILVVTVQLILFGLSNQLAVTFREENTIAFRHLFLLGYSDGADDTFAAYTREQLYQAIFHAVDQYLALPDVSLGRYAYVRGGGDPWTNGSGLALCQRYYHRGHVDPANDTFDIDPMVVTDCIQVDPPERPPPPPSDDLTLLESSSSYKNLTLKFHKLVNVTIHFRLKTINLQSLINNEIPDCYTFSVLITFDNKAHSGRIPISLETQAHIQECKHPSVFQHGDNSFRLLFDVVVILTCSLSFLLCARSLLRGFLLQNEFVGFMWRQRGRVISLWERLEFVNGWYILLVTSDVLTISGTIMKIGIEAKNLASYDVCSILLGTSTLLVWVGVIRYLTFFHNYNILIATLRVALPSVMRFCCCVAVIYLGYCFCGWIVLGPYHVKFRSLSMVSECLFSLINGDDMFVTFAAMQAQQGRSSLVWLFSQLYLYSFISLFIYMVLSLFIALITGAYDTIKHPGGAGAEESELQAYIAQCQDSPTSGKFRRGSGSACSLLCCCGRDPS

For `CN(CC1CCCC1)c1ccccc1NS(=O)(=O)c1ccc(S(=O)(=O)N(C)C)cc1` [Compound 25, N1-(2-((cyclopentylmethyl)(methyl)amino)phenyl)-N4,N4-dimethylbenzene-1,4-disulfonamide], the EC50 amounted to 0.42 µM on TRPML1 and 0.54 µM with TFEB (Homo sapiens, HeLa, 1.5 h).
For `CN(Cc1cncs1)c1c(Cl)cccc1NS(=O)(=O)c1ccc(S(=O)(=O)N(C)C)cc1` [Compound 73, N1-(3-chloro-2-(methyl(thiazol-5-ylmethyl)amino)phenyl)-N4,N4-dimethylbenzene-1,4-disulfonamide], the EC50 at TRPML1 turned out to be 0.996 µM; with TFEB (Homo sapiens, HeLa, 1.5 h) it was 4.85 µM.
For the compound `Cc1cccc(NS(=O)(=O)c2ccc(S(=O)(=O)N(C)C)cc2)c1N(C)Cc1cscn1` [Compound 71, N1,N1-dimethyl-N4-(3-methyl-2-(methyl(thiazol-4-ylmethyl)amino)phenyl)benzene-1,4-disulfonamide], the EC50 stood at 0.818 µM on TRPML1 and 4.04 µM in the experiment on TFEB (Homo sapiens, HeLa, 1.5 h).
For `CN(C)S(=O)(=O)c1ccc(S(=O)(=O)Nc2ccccc2N(CC(F)(F)F)C2CCCCC2)cc1` [Compound 81, N1-(2-(cyclohexyl(2,2,2-trifluoroethyl)amino)phenyl)-N4,N4-dimethylbenzene-1,4-disulfonamide], the EC50 was determined as 0.461 µM at TRPML1 and 0.323 µM in the experiment with TFEB (Homo sapiens, HeLa, 1.5 h).
Turning to `CN(C)S(=O)(=O)c1ccc(S(=O)(=O)Nc2ccccc2N(CC2COC2)C2CCCCC2)cc1` [Compound 84, N1-(2-(Cyclohexyl(oxetan-3-ylmethyl)amino)phenyl)-N4,N4-dimethylbenzene-1,4-disulfonamide], the EC50 on TRPML1 was determined as 0.567 µM; in the experiment on TFEB (Homo sapiens, HeLa, 1.5 h) it was 0.664 µM.
Taken in the same sequence, the figures for `CN(CC1CCCCO1)c1ccccc1NS(=O)(=O)c1ccc(S(=O)(=O)N(C)C)cc1` (stereo not drawn) [Compound 108, N1,N1-dimethyl-N4-(2-(methyl((tetrahydro-2H-pyran-2-yl)methyl)amino)phenyl)benzene-1,4-disulfonamide] were 0.79 µM and 0.431 µM.
Take `CN(CC1CCCCC1)c1ccccc1NS(=O)(=O)c1ccc(S(=O)(=O)N(C)C)cc1` [Compound 23, N1-(2-((cyclohexylmethyl)(methyl)amino)phenyl)-N4,N4-dimethylbenzene-1,4-disulfonamide]: the EC50 at TRPML1 worked out at 0.41 µM; with TFEB (Homo sapiens, HeLa, 1.5 h) it was 0.2 µM.
Taken in the same sequence, the figures for `CCN(C)c1c(Cl)cccc1NS(=O)(=O)c1ccc(S(=O)(=O)N(C)C)cc1` [Compound 78, N1-(3-chloro-2-(ethyl(methyl)amino)phenyl)-N4,N4-dimethylbenzene-1,4-disulfonamide] were 0.868 µM and 1.46 µM.
Taken in the same sequence, the figures for `CC(C)CCN(C)c1c(Cl)cccc1NS(=O)(=O)c1ccc(S(=O)(=O)N(C)C)cc1` [Compound 67, N1-(3-chloro-2-(isopentyl(methyl)amino)phenyl)-N4,N4-dimethylbenzene-1,4-disulfonamide] were 0.42 µM and 0.353 µM.
The matching figures for `CN(CC1CCC1)c1ccccc1NS(=O)(=O)c1ccc(S(=O)(=O)N(C)C)cc1` [Compound 106, N1-(2-((cyclobutylmethyl)(methyl)amino)phenyl)-N4,N4-dimethylbenzene-1,4-disulfonamide]: 0.371 µM and 0.464 µM.
For the compound `CN(c1ccccc1NS(=O)(=O)c1ccc(S(=O)(=O)N(C)C)cc1)C1CCCCC1` [Compound 118, N1-(2-(cyclohexyl(methyl)amino)phenyl)-N4,N4-dimethylbenzene-1,4-disulfonamide], the 50% effective concentration (EC50) at TRPML1 was determined as 0.276 µM; with TFEB (Homo sapiens, HeLa, 1.5 h), 0.529 µM.
Regarding `CN(CC1(F)CC1)c1ccccc1NS(=O)(=O)c1ccc(S(=O)(=O)N(C)C)cc1` [Compound 95, N1-(2-(((1-fluorocyclopropyl)methyl)(methyl)amino)phenyl)-N4,N4-dimethylbenzene-1,4-disulfonamide], the EC50 on TRPML1 was 0.274 µM; in the experiment with TFEB it was 0.915 µM; in the experiment on TFEB (Homo sapiens, HeLa, 1.5 h), 1.27 µM.
Take `CN(Cc1cscn1)c1c(F)cccc1NS(=O)(=O)c1ccc(S(=O)(=O)N(C)C)cc1` [Compound 68, N1-(3-fluoro-2-(methyl(thiazol-4-ylmethyl)amino)phenyl)-N4,N4-dimethylbenzene-1,4-disulfonamide]: the concentration giving a half-maximal response (EC50) came out at 1.03 µM at TRPML1 and 2.23 µM in the experiment on TFEB (Homo sapiens, HeLa, 1.5 h).
Taken in the same sequence, the figures for `CN(Cc1cncs1)c1c(F)cccc1NS(=O)(=O)c1ccc(S(=O)(=O)N(C)C)cc1` [Compound 70, N1-(3-Fluoro-2-(methyl(thiazol-5-ylmethyl)amino)phenyl)-N4,N4-dimethylbenzene-1,4-disulfonamide] were 1.34 µM and 6.96 µM.
As to `Cc1ccc(N(C)C2CCCCC2)c(NS(=O)(=O)c2ccc(S(=O)(=O)N(C)C)cc2)c1` [Compound 117, N1-(2-(cyclohexyl(methyl)amino)-5-methylphenyl)-N4,N4-dimethylbenzene-1,4-disulfonamide], the EC50 on TRPML1 turned out to be 0.353 µM; with TFEB (Homo sapiens, HeLa, 1.5 h), 0.0837 µM.
Turning to `CN(c1c(F)cccc1NS(=O)(=O)c1ccc(S(=O)(=O)N(C)C)cc1)C1CCCCC1` [Compound 12, N1-(2-(cyclohexyl(methyl)amino)-3-fluorophenyl)-N4,N4-dimethylbenzene-1,4-disulfonamide], the EC50 at TRPML1 was 0.72 µM; in the experiment on TFEB (Homo sapiens, HeLa, 1.5 h), < 0.08 µM.
